# Experimental data published in PMC7053711, “A G protein–coupled receptor mediates neuropeptide-induced oocyte maturation in the jellyfish Clytia” (PLoS Biology, 2020).
# pEC50: −log10 of the molar value. Peptide text beside a SMILES is read from it.
# Tests used:
# [1] = tested on: fully grown oocytes isolated from WT gonads; assay: Oocyte maturation assay, wild-type isolated oocytes (GVBD); format: cell-based, Clytia hemisphaerica; conditions: for Oocyte maturation (number) / Percentage of Oocytes maturing: 0,1uM WPRPa, wild type
# Excerpt: Fig 4 Oocyte maturation failure in MIHR mutant medusae. Oocyte maturation assays performed using isolated gonads (A, B) or isolated oocytes (C) from MIHR mutant jellyfish compared to WT. In A and C, bar heights represent mean percentages of 3 independent experiments and error bars show standard deviations. Total gonad or oocyte numbers for each treatment are indicated in gray. (A) Spawning response of isolated gonads from WT and n5-23 female medusae. Three treatments were compared as indicated above each panel: Light: light stimulation after incubation in the dark; MIH: treatment of light-maintained gonads with 100 nM WPRPamide; cAMP: treatment of light-maintained gonads with 4 mM Br-cAMP. […] Full datasets from three independent experiments are available in S3 Data. (B) Light microscope images illustrating gonads from an equivalent experiment performed with n5-13 female MIHR mutant medusae 120 minutes after the indicated treatments. Scale bar: 500 μm. […] Full datasets from 3 independent experiments are available in S3 Data. Br-cAMP, bromoadenosine 3′,5′-cyclic monophosphate; cAMP, cyclic adenosine monophosphate; KO, knockout; MIH, maturation-inducing hormone; MIHR, MIH receptor; WT, wild-type.
# Fully grown oocytes were isolated manually from dissected gonads of wild-type and MIHR KO mutant jellyfish prepared as above. Maturation assays were performed in wells of 96-well plates or small plastic petri dishes lined with 2% agarose in MFSW. Spontaneous maturation occurs at a low frequency in control oocytes. To test MIH-induced maturation, 10 μL WPRPamide from 1 μM solution in MFSW was added to a final concentration of 100 nM. In some experiments, Br-cAMP from a 20 mM stock in H2O was used at a final concentration of 4 mM. GVBD was scored at 30 minutes, every 5 minutes, depending on experiments.
# Supplementary file pbio.3000614.s013.xlsx: S3 Data Numerical data corresponding to Fig 4A and 4C. The first tab collects all the raw data from 3 independent gonad spawning assays. Information corresponding to the Fisher exact tests is also shown. […] The means and standard deviations were used to prepare the graph in Fig 4C. Information corresponding to the Fisher exact tests is also shown. (XLSX) Click here for additional data file.
# Clytia MIHR = assay: Dose–response curves of Clytia MIHR, luminescence (CHO-K1 cells, Gα-16, GFP-apoaequorin); format: cell-based, Clytia hemisphaerica; set-up: key to Span (best-fit value) / Bottom (best-fit value): % activation, normalized to fitted upper plateau (100%); conditions: for pEC50: four-parameter fit, variable slope, triplicate; for HillSlope / LogEC50: best-fit value; for Bottom / Span / Top: best-fit value (luminescence)
# Protocol: The Clytia MIH amidated peptides are produced from two precursor genes Che-pp4 (generating multiple copies of WPRAamide, WPRYamide, and WPRPamide) and Che-pp1 (multiple copies of WPRPamide and RPRGamide).
# Cell culture GPCR ligand response assays were performed as described. Briefly, CHO-K1 cells were cultured in Ham’s F12 Nut Mix medium (Thermo Fisher Scientific) with 10% foetal bovine serum. Cells were seeded in 96-well plates at approximately 10,000 cells/well and transfected the following day with pcDNA3.1(+) plasmids encoding each of the 16 candidate Clytia GPCRs (S2 Text), the promiscuous Gα-16 protein [65], and a reporter construct GFP-apoaequorin [66] (60 ng each) using the transfection reagent TurboFect (Thermo Fisher Scientific). After 2 days of expression, the medium was removed and replaced with Hank’s balanced salt solution (HBSS) supplemented with 1.8 mM Ca2+, 10 mM glucose, and […] coelenterazine h (Promega, Madison, WI). After incubation at 37 °C for 2 hours, cells were tested by adding synthetic peptides (GenScript) in HBSS supplemented with 1.8 mM Ca2^+ and 10 mM glucose. A list of all synthetic peptides used is provided in S2 Table. Luminescence was recorded for 45 seconds in a plate reader (BioTek Synergy Mx or Synergy H4; BioTek, Winooski, VT). Data were integrated over the 45-second measurement period and recorded as technical triplicates in each case. Data were normalized using the response of Platynereis FLamide receptor to 1 μM AKYFL-NH2 [28]. Dose–response curves were obtained using concentrations between 0.01 nM and 100 μM for each peptide. Data for dose–response curves were recorded in triplicate for each concentration and the experiment was repeated independently 3 times. Dose–response curves were fitted with a four-parameter curve using Prism 6 (GraphPad, La Jolla, CA) and were normalized to the calculated upper plateau values (100% activation).
# Supplementary file pbio.3000614.s012.xlsx: S2 Data Numerical data corresponding to Fig 1C. The first three tabs show statistical values obtained using Prism 6 software (GraphPad, La Jolla, CA) from the raw luminescence values for 3 independent dose–response experiments. The raw luminescence values are shown, as well as the values normalized with respect to the maximum. […] MIH, maturation-inducing hormone. (XLSX) Click here for additional data file.
# [2] = 100 nM WPRPamide or 4 mM Br-cAMP
# [3] = WPRPa, pooled n=47, Fisher exact test vs MIHR KO significant at p < .01
# [4] = log(agonist) vs. response, variable slope (four parameters), fit of third dataset
compound,measurement,setting,value
N=C(N)NCCC[C@H](NC(=O)[C@@H]1CCCN1C(=O)[C@@H](N)Cc1c[nH]c2ccccc12)C(=O)N1CCC[C@H]1C(N)=O [WPRPa] (H-WPRP-NH2; N-terminus assumed),Oocyte maturation (number),"[1]; replicate 1, total 13",13
same,Percentage of Oocytes maturing,"[1]; replicate 1, total 13",100.00
same,Oocyte maturation (number),"[1]; replicate 2, total 19",19
same,Percentage of Oocytes maturing,"[1]; replicate 2, total 19",100.00
same,Oocyte maturation (number),"[1]; replicate 3, total 15.00",15
same,Percentage of Oocytes maturing,"[1]; replicate 3, total 15.00",100.00
same,maturation of isolated WT oocytes,[1]; [2],triggered maturation of WT oocytes
same,"time to visible GVBD, isolated WT oocytes",[1]; [2],20 to 30 min
same,"Maturing oocytes, WT YES",[1]; [3],47
same,"Non-maturing oocytes, WT NO",[1]; [3],0
same,pEC50,Clytia MIHR; dataset/experiment 1,6.66
same,pEC50,Clytia MIHR; dataset/experiment 2,6.03
same,HillSlope,Clytia MIHR; first dataset,1.128
same,LogEC50,Clytia MIHR; first dataset,-6.658
same,Bottom,Clytia MIHR; first dataset,935
same,Span,Clytia MIHR; first dataset,46105
same,Top,Clytia MIHR; first dataset,47040
same,Bottom (best-fit value),Clytia MIHR; [4],10.51
same,HillSlope (best-fit value),Clytia MIHR; [4],1.078
same,LogEC50 (best-fit value),Clytia MIHR; [4],-6.286
same,Span (best-fit value),Clytia MIHR; [4],89.49
same,HillSlope,Clytia MIHR; second dataset,0.9926
same,LogEC50,Clytia MIHR; second dataset,-6.033
same,Bottom,Clytia MIHR; second dataset,1493
same,Span,Clytia MIHR; second dataset,22106
same,Top,Clytia MIHR; second dataset,23599
